Test results from ChEMBL document CHEMBL4354805, “Discovery of MK-8719, a Potent O-GlcNAcase Inhibitor as a Potential Treatment for Tauopathies” (J Med Chem, 2019).

Tests used:
[1] = Oral bioavailability in Wistar Han rat at 10 mg/kg; assay type: ADME, organism-based; conditions: in vivo
[2] = biological target: Sodium channel protein type 5 subunit alpha (Homo sapiens, UniProt Q14524); assay: Inhibition of Nav1.5 (unknown origin)
[3] = Ratio of Cmax in brain to plasma in rat at 10 mg/kg, po; assay type: ADME, organism-based
[4] = Volume of distribution at steady state in Wistar Han rat at 2 mg/kg, iv or 10 mg/kg, po; assay type: ADME, organism-based; conditions: in vivo, read-out: Vdss
[5] = Drug uptake in rat brain at 3 mg/kg, po measured after 8 hrs; assay type: ADME, organism-based; conditions: in vivo
[6] = biological target: Voltage-gated inwardly rectifying potassium channel KCNH2 (Homo sapiens, UniProt Q12809); assay: Displacement of MK-0499 from human ERG
Cytochrome P450 2C9 = Cytochrome P450 2C9 (Homo sapiens, UniProt P11712); assay: Inhibition of CYP2C9 (unknown origin); assay type: ADME
[7] = Fraction unbound in human plasma at 2.5 uM by equilibrium dialysis; assay type: ADME, cell-free
[8] = Half life in Wistar Han rat at 2 mg/kg, iv; assay type: ADME, organism-based; conditions: in vivo
[9] = Fraction unbound in human plasma; assay type: ADME, cell-free
MDR1 = assay: Apparent permeability in pig LLC-PK1 cells transfected with MDR1; assay type: ADME, cell-based, Sus scrofa
[10] = biological target: T1, Beta-hexosaminidase subunit beta (Homo sapiens, UniProt P07686); assay: Inhibition of human beta hexosaminidase assessed as inhibitory constant using 4-methylumbelliferyl N-acetyl-beta-D-glucosaminide dihydrate as substrate measured every 60 sec for 45 mins by fluorescence spectrophotometry
T1 sequence (P07686 whole entry): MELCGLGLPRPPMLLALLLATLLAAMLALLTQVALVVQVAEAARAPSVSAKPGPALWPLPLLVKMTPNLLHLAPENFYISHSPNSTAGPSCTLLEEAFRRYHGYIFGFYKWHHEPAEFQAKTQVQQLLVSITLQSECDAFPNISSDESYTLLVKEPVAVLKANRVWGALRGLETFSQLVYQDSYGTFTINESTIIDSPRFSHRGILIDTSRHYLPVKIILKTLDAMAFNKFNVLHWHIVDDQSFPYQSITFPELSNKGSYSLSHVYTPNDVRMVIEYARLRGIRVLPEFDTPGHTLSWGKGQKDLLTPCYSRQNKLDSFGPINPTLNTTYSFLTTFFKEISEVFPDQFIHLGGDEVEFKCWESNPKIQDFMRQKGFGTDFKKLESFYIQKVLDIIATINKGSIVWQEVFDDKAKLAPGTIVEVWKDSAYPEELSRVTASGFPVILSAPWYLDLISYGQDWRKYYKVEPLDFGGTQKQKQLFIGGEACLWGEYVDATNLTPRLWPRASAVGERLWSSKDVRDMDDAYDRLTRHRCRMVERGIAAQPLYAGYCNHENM

[11] = Ratio of drug uptake in rat brain to plasma at 3 mg/kg, po measured after 24 hrs; assay type: ADME, organism-based; conditions: read-out: BPR
[12] = biological target: Voltage-dependent L-type calcium channel subunit alpha-1C (Homo sapiens, UniProt Q13936); assay: Inhibition of Cav1.2 (unknown origin)
[13] = Drug uptake in rat brain at 3 mg/kg, po measured after 24 hrs; assay type: ADME, organism-based; conditions: in vivo
Cytochrome P450 3A4 = Cytochrome P450 3A4 (Homo sapiens, UniProt P08684); assay: Inhibition of CYP3A4 (unknown origin); assay type: ADME
[14] = Tmax in rat brain at 10 mg/kg, po measured upto 24 hrs; assay type: ADME, organism-based
[15] = Clearance in Wistar Han rat at 2 mg/kg, iv; assay type: ADME, organism-based; conditions: in vivo
Cytochrome P450 2D6 = Cytochrome P450 2D6 (Homo sapiens, UniProt P10635); assay: Inhibition of CYP2D6 (unknown origin); assay type: ADME
[16] = Ratio of drug uptake in rat brain to plasma at 3 mg/kg, po measured after 8 hrs; assay type: ADME, organism-based; conditions: read-out: BPR
[17] = AUCN in Wistar Han rat at 10 mg/kg, po; assay type: ADME, organism-based; conditions: in vivo
[18] = AUC (0 to 24 hrs) in rat brain at 10 mg/kg, po measured upto 24 hrs; assay type: ADME, organism-based; set-up: dose 10 mg/kg, time < 24 hr, route oral; conditions: in vivo
[19] = biological target: T2, Nuclear receptor subfamily 1 group I member 2 (Homo sapiens, UniProt O75469); assay: Activation of PXR (unknown origin) assessed as CYP3A4 induction
T2 sequence (O75469 whole entry): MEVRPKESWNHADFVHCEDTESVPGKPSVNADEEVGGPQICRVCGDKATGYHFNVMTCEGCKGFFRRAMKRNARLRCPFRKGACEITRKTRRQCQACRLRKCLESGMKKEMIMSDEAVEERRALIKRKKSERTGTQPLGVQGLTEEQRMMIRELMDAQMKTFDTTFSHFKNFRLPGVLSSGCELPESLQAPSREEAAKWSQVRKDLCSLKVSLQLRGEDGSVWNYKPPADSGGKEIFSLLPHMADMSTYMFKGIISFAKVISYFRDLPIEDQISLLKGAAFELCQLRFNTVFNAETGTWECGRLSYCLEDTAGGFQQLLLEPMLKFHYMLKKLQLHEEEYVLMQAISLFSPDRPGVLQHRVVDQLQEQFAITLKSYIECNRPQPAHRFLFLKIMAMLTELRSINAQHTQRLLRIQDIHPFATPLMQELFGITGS

[20] = Fraction unbound in Wistar Han rat plasma at 2.5 uM by equilibrium dialysis; assay type: ADME, cell-free

Chain of Cytochrome P450 2C9 (P11712 whole entry): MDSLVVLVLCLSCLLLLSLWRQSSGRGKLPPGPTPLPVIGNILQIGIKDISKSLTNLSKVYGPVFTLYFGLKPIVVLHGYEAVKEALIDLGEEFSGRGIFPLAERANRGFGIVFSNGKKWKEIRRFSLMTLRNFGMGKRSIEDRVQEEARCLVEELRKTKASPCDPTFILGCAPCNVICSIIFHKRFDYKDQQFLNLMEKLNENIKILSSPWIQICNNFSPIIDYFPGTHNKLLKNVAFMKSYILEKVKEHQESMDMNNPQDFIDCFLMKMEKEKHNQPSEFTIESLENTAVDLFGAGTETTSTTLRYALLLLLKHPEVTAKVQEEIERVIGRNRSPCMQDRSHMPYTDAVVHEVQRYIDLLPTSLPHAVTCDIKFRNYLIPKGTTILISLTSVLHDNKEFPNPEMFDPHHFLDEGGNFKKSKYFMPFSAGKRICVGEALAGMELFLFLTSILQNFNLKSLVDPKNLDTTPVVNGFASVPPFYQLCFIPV
Chain of Voltage-gated inwardly rectifying potassium channel KCNH2 (Q12809 whole entry): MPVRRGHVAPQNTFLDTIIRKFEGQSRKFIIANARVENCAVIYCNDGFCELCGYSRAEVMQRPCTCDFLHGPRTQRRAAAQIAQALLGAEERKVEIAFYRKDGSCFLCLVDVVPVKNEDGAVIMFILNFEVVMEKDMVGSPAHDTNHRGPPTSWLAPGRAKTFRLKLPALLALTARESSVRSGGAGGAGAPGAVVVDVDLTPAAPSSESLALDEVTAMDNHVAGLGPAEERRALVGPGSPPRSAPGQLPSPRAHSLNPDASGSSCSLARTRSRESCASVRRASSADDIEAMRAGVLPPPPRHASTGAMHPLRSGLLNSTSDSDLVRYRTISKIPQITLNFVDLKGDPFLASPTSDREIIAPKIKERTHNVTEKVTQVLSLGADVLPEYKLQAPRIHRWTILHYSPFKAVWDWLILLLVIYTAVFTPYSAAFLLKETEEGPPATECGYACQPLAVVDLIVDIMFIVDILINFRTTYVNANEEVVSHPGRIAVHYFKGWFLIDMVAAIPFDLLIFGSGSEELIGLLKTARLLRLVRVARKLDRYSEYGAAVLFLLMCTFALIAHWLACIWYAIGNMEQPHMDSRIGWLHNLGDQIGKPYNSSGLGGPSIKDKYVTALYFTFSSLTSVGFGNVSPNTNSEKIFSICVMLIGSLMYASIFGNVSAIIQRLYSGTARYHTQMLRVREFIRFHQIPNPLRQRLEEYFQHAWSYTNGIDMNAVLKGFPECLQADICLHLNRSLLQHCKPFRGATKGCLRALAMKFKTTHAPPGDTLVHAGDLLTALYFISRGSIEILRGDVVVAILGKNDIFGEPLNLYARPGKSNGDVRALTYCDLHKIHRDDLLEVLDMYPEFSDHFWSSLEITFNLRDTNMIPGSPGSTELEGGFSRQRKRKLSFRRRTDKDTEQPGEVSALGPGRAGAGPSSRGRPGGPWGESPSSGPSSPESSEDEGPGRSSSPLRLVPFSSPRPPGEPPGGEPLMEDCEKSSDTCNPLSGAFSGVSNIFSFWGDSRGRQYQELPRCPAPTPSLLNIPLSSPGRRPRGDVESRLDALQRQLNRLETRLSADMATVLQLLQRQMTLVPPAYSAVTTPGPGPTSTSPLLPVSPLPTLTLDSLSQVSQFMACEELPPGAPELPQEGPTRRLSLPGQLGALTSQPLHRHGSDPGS
Chain of Sodium channel protein type 5 subunit alpha (Q14524 whole entry): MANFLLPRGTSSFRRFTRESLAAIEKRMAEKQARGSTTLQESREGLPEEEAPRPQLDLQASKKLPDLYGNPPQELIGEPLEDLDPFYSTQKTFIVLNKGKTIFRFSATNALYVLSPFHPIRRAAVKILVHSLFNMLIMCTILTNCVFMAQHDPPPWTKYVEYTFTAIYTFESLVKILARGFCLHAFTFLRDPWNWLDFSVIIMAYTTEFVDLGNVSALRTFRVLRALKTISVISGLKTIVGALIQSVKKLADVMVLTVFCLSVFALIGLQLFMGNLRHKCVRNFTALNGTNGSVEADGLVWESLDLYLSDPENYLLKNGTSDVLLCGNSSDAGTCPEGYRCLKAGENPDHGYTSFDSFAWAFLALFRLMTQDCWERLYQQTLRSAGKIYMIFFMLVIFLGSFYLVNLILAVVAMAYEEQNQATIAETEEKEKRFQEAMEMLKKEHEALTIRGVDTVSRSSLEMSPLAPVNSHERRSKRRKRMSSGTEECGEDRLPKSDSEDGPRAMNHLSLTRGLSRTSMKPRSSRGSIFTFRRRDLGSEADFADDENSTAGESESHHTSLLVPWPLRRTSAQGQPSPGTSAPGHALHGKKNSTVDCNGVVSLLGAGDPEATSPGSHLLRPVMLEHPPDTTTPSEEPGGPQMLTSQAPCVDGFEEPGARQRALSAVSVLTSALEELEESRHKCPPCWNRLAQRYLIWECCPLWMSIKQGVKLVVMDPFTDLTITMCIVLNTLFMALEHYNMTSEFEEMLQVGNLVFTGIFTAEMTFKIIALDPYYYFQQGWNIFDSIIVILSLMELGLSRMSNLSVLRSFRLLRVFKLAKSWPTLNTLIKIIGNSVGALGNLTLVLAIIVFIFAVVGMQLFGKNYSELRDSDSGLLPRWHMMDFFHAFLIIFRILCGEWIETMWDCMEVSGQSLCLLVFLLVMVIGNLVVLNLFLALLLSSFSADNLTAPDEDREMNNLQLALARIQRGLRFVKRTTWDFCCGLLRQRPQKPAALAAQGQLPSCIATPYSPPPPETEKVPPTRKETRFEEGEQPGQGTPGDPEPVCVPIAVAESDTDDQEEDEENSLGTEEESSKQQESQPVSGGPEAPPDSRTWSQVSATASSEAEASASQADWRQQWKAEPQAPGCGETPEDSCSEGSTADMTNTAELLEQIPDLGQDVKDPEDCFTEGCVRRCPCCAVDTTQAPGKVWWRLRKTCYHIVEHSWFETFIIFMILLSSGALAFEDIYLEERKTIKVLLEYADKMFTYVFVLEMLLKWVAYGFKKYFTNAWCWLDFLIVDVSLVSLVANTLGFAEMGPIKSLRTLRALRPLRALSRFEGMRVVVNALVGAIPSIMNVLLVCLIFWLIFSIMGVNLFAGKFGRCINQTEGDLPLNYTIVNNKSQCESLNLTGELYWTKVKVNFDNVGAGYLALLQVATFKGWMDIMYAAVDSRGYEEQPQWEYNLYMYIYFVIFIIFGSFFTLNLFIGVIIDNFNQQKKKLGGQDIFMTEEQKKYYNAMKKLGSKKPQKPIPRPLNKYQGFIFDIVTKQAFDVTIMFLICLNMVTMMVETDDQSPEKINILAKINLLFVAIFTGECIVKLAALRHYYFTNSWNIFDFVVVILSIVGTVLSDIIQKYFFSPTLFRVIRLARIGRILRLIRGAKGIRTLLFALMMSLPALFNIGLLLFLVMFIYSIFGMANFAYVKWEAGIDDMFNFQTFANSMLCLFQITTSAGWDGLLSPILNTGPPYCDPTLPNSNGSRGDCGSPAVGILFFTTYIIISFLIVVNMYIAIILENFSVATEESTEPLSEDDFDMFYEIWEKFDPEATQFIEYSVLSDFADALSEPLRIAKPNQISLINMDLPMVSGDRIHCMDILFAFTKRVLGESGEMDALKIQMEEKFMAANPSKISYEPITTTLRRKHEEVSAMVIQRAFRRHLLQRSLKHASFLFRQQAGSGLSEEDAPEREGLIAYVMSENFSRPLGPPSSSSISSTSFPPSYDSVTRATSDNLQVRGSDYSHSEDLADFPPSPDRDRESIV
Chain of Cytochrome P450 3A4 (P08684 whole entry): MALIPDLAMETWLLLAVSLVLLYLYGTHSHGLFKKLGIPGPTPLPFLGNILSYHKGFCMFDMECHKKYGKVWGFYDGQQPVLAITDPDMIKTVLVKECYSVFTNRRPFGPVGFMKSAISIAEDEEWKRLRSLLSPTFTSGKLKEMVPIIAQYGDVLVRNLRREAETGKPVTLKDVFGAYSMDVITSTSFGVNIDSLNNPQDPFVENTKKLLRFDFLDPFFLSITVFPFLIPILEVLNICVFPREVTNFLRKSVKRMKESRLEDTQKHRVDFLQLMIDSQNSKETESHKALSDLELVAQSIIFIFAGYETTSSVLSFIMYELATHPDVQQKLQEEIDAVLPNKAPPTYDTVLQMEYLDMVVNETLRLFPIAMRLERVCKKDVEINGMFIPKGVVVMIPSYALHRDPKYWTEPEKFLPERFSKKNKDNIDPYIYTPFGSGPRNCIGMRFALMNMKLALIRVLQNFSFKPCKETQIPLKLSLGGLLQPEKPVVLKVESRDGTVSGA
Chain of Cytochrome P450 2D6 (P10635 whole entry): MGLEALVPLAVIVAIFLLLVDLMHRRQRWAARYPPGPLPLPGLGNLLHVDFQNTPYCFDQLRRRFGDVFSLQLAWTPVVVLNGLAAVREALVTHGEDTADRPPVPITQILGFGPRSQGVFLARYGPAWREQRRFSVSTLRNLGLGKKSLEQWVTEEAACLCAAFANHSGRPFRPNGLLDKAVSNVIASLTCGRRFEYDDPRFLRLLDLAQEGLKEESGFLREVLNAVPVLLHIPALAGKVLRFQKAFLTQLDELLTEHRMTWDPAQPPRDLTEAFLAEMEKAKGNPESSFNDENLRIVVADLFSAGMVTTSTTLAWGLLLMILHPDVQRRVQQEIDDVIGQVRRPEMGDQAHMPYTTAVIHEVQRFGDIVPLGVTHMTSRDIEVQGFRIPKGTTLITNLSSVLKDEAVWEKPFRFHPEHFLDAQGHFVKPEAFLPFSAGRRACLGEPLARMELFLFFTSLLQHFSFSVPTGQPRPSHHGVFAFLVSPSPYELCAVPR

## CCNC1=N[C@@H]2[C@@H](O)[C@H](O)[C@@H](CO)O[C@@H]2S1
[1]
  bioavailability: 30%
[2]
  IC50: > 30 µM
[3]
  Kp: 0.1
[4]
  Vd: 1.5 L/kg
[5]
  Drug uptake: 0.185 nmol/g
[6]
  IC50: > 30 µM
Cytochrome P450 2C9
  IC50: > 50 µM
[7]
  fraction unbound at 2.5 µM: 0.76
[8]
  half-life: 1.4 h
[9]
  fraction unbound: 0.76
MDR1
  Papp: ≤ 10 nm/s
[10]
  Ki: > 10 µM
[11]
  Kp at 24 h: > 2.7
[12]
  IC50: > 30 µM
[13]
  Drug uptake: 0.051 nmol/g
Cytochrome P450 3A4
  IC50: > 50 µM
[14]
  Tmax: 8 h
[15]
  clearance: 1.5 L/h/kg
Cytochrome P450 2D6
  IC50: > 50 µM
[16]
  Kp at 8 h: 0.94
[17]
  AUC/dose: 0.8 µM·kg·h/mg
[18]
  AUC: 1.14 nM·h/g
[19]
  EC50: > 30 µM
[20]
  fraction unbound at 2.5 µM: 0.73
